# Values quoted from earlier work, collected in patent publication US10780172B2, “Docetaxel and human serum albumin complexes” (Zhuhai Beihai Biotech Co., Ltd., priority 2015, dated 2020).
# “Also recorded” adds a separate entry of the source.
# Legend:
# [1] = test system: plasma proteins
# [2] = test system: microtubule
smiles,measurement,setting,value
CC(=O)O[C@@]12CO[C@@H]1C[C@H](O)[C@@]1(C)C(=O)[C@H](O)C3=C(C)[C@@H](OC(=O)[C@H](O)[C@@H](NC(=O)OC(C)(C)C)c4ccccc4)C[C@@](O)([C@@H](OC(=O)c4ccccc4)[C@H]21)C3(C)C [Docetaxel],protein bound,"[1]; in vitro studies, mainly to al-acid glycoprotein, albumin, and lipoproteins",about 94%
same,in vitro binding to plasma proteins,[1]; three cancer patients,approximately 97%
same,water solubility,,practically insoluble in water; also recorded: very poor water solubility
same,potency relative to paclitaxel in inhibiting microtubule depolymerization,[2],about twice as potent as paclitaxel
